Earlier results as cited in article PMC12122562, “Phase 1 studies of the indenoisoquinolines LMP776 and LMP744 in patients with solid tumors and lymphomas” (Cancer Chemotherapy and Pharmacology, 2025).

System: naturally occurring lymphomas
Design: method as in PMID 30061364
Conditions: canines with lymphomas; cited from earlier work

## COc1cc2c3c(n(CCCNCCO)c(=O)c2cc1OC)-c1cc2c(cc1C3=O)OCO2 [LMP744]
  Responders: 13 of 19
  Response rate: 68.4%

## COc1cc2c3c(n(CCCn4ccnc4)c(=O)c2cc1OC)-c1cc2c(cc1C3=O)OCO2 [LMP776]
  Responders: 7 of 24
  Response rate: 29.2%
